Among the test systems are BT-549 breast; CCRF-CEM leukemia; COLO 205 colon; HOP-92 NSCLC; OVCAR-8 ovarian; SK-MEL-28 melanoma; SN12C renal; SW-620 colon; T-47D breast; UACC-62 melanoma.
Assay in all cases: NCI anticancer screen, dose series, 48 h

The structures appear in SMILES notation. Where “and” joins values, the source holds several entries; their conditions need not be identical. Identical values can stand only once.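 All cell lines were grown in 96-well plates and treated with compound for 48 hours. GI50 marks 50% less growth. TGI denotes the concentration required for complete inhibition of growth.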

With `COc1cc(/C=C\c2cc(OC)c(OC)c(OC)c2)cc(NS(=O)(=O)c2ccc(Cl)cc2)c1OC`, the GI50 in the experiment with BT-549 breast is 0.966 µM; with CCRF-CEM leukemia it was 0.388 µM; in the experiment with COLO 205 colon it was 0.253 µM; in the experiment with HOP-92 NSCLC, 0.72 µM; with OVCAR-8 ovarian, 0.6 µM; in the experiment on SK-MEL-28 melanoma, 1.14 µM. The GI50 in the experiment on SN12C renal was 0.75 µM; with SW-620 colon, 0.343 µM; in the experiment on T-47D breast it was 0.381 µM; in the experiment on UACC-62 melanoma, 0.435 µM. Also, the TGI in the experiment on BT-549 breast is 77 µM; with CCRF-CEM leukemia, over 100 µM; in the experiment with COLO 205 colon, 0.652 µM; in the experiment on HOP-92 NSCLC, 72.3 µM; in the experiment on OVCAR-8 ovarian, over 100 µM; with SK-MEL-28 melanoma, over 100 µM. Also, the TGI in the experiment on SN12C renal was over 100 µM; with SW-620 colon it was over 100 µM; in the experiment on T-47D breast, over 100 µM; with UACC-62 melanoma, 36.7 µM.

Turning to `CNCc1ccc(-c2[nH]c3cc(F)cc4c3c2CCNC4=O)cc1`, the GI50 is 17.4 µM with BT-549 breast; 25.6 µM with CCRF-CEM leukemia; 11.7 µM with COLO 205 colon; 17.9 µM in the experiment on HOP-92 NSCLC; 17.4 µM in the experiment on OVCAR-8 ovarian; 15.6 µM in the experiment on SK-MEL-28 melanoma. Besides, the GI50 is 16.5 µM in the experiment on SN12C renal, 16.1 µM in the experiment with SW-620 colon, 16.8 µM in the experiment with T-47D breast and 15 µM with UACC-62 melanoma. For the same compound, the TGI is 36.4 µM with BT-549 breast; over 93 µM with CCRF-CEM leukemia; 26.4 µM in the experiment on COLO 205 colon; over 69.5 µM in the experiment on HOP-92 NSCLC; 77.5 µM with OVCAR-8 ovarian; 32 µM in the experiment on SK-MEL-28 melanoma. The TGI came out at 48 µM in the experiment with SN12C renal, 60.4 µM in the experiment on SW-620 colon, 55 µM in the experiment with T-47D breast and 29.8 µM in the experiment on UACC-62 melanoma.

On to `CCCCC[C@@H](C/C=C/CCC(=O)NC/C(=C/Cl)[C@H]1C(=O)C(C)(C)C(=O)[C@@H](C)[C@@]1(C)O)OC`, for which the GI50 is 17.9 µM in the experiment on BT-549 breast; 3.27 µM in the experiment with CCRF-CEM leukemia; 18.5 µM in the experiment on COLO 205 colon; 19.2 µM in the experiment on HOP-92 NSCLC; 18.6 µM in the experiment with OVCAR-8 ovarian; 18.1 µM with SK-MEL-28 melanoma. The GI50 was 17.3 µM in the experiment with SN12C renal, 20.8 µM with SW-620 colon, 15.4 µM in the experiment on T-47D breast and 15.6 µM with UACC-62 melanoma. Also, the TGI with BT-549 breast was found to be 32.7 µM; in the experiment with CCRF-CEM leukemia, 15.7 µM; in the experiment with COLO 205 colon, 33.6 µM; in the experiment with HOP-92 NSCLC, 38.2 µM; with OVCAR-8 ovarian it was 36.1 µM; with SK-MEL-28 melanoma, 33.8 µM. In addition, the TGI was found to be 32 µM with SN12C renal, 39.3 µM in the experiment on SW-620 colon, 34.6 µM with T-47D breast and 29.1 µM in the experiment on UACC-62 melanoma.

For the compound `O=NN(CCCl)C(=O)NC1CCCCC1`, the TGI with BT-549 breast was 81.7 µM; with CCRF-CEM leukemia, 40.9 µM and 98.4 µM and 57.5 µM; with COLO 205 colon, 36.7 µM and 102 µM and 87.8 µM; in the experiment on HOP-92 NSCLC it was 48.7 µM and 99.1 µM and 74.7 µM; with OVCAR-8 ovarian, 42 µM and 208 µM and 215 µM; in the experiment on SK-MEL-28 melanoma, 46.5 µM and 144 µM and 99.2 µM. Also, the TGI in the experiment on SN12C renal is 47.8 µM and 123 µM and 214 µM; in the experiment on SW-620 colon, 45.9 µM and 108 µM and 98.7 µM; in the experiment on T-47D breast it was 166 µM; in the experiment with UACC-62 melanoma it was 24.2 µM and 72 µM and 77.3 µM. The GI50 in the experiment with CCRF-CEM leukemia is 8.23 µM and 22.6 µM; in the experiment with COLO 205 colon, 20.3 µM and 57.1 µM; in the experiment with HOP-92 NSCLC, 23.6 µM and 42.6 µM; with OVCAR-8 ovarian, 19.2 µM and 70.8 µM; with SK-MEL-28 melanoma, 24.1 µM and 66.1 µM; with SN12C renal, 20.9 µM and 92.8 µM. Moreover, the GI50 in the experiment with SW-620 colon was 18.3 µM and 44.1 µM; in the experiment on UACC-62 melanoma it was 7.68 µM.

On to `COc1c(O)c2c3c(c1OC)-c1ccccc1CC3N(S(=O)(=O)c1ccc(C)cc1)CC2` (stereo unspecified), for which the GI50 with BT-549 breast was 3.46 µM; in the experiment on CCRF-CEM leukemia it was 1.34 µM; in the experiment on COLO 205 colon it was 19.2 µM; in the experiment with HOP-92 NSCLC it was 1.41 µM; in the experiment with OVCAR-8 ovarian it was 1.92 µM; with SK-MEL-28 melanoma, 2.51 µM. Also, the GI50 in the experiment with SN12C renal was 2.59 µM; with SW-620 colon, 1.6 µM; in the experiment on T-47D breast it was 1.56 µM; with UACC-62 melanoma, 2.41 µM. In addition, the TGI in the experiment with BT-549 breast was 42.2 µM; with CCRF-CEM leukemia it was 4.94 µM; with COLO 205 colon it was over 50 µM; with HOP-92 NSCLC, 29 µM; in the experiment with OVCAR-8 ovarian it was over 50 µM; with SK-MEL-28 melanoma it was over 50 µM. Also, the TGI with SN12C renal is over 50 µM; in the experiment with SW-620 colon, over 50 µM; in the experiment with T-47D breast, 27.9 µM; in the experiment with UACC-62 melanoma, over 50 µM.

For `Cc1nc2c(Br)cc(Br)cc2c(=O)n1-c1ccccc1NC1OCC(O)C(O)C1O` (stereo unspecified), the TGI in the experiment on BT-549 breast is over 100 µM; in the experiment with CCRF-CEM leukemia it was 56.7 µM and > 56.5 µM; in the experiment on COLO 205 colon, 34.2 µM and > 100 µM; with HOP-92 NSCLC it was 82.1 µM and > 100 µM; in the experiment with OVCAR-8 ovarian, > 100 µM and 50.7 µM; with SK-MEL-28 melanoma, over 100 µM. The TGI was over 100 µM in the experiment on SN12C renal; over 100 µM with SW-620 colon; over 100 µM with T-47D breast; > 100 µM and 36.7 µM with UACC-62 melanoma. Moreover, the GI50 in the experiment on OVCAR-8 ovarian was 30.6 µM and 14.5 µM; with SN12C renal it was 46.8 µM and 21.9 µM; in the experiment on UACC-62 melanoma, 31.7 µM and 15.7 µM.

Take `COc1ccc(OCC(O)CN2CCN(c3ccc(Cl)cc3)CC2)cc1` (stereo unspecified): the GI50 in the experiment with BT-549 breast was over 100 µM; with CCRF-CEM leukemia it was over 100 µM; with COLO 205 colon it was over 100 µM; in the experiment with HOP-92 NSCLC it was 3.99 µM; in the experiment with OVCAR-8 ovarian, 88.5 µM; with SK-MEL-28 melanoma it was over 100 µM. Further, the GI50 in the experiment on SN12C renal, in the experiment with SW-620 colon, in the experiment on T-47D breast and in the experiment on UACC-62 melanoma was over 100 µM in each case. For the same compound, the TGI in the experiment on BT-549 breast, in the experiment with CCRF-CEM leukemia, with COLO 205 colon, with HOP-92 NSCLC, in the experiment with OVCAR-8 ovarian and with SK-MEL-28 melanoma was over 100 µM each time. Moreover, the TGI with SN12C renal, in the experiment on SW-620 colon, with T-47D breast and in the experiment on UACC-62 melanoma was over 100 µM each time.

For the compound `O=C(OC[C@@H]1CO1)c1cccc2c(=O)c3ccccc3[nH]c12`, the GI50 in the experiment with BT-549 breast is 0.338 µM; in the experiment with CCRF-CEM leukemia, 0.0896 µM; in the experiment on COLO 205 colon, 0.246 µM; in the experiment with HOP-92 NSCLC it was 0.444 µM; in the experiment with OVCAR-8 ovarian, 0.166 µM; in the experiment with SK-MEL-28 melanoma it was 0.396 µM. Moreover, the GI50 was 0.196 µM in the experiment on SN12C renal, 0.0649 µM in the experiment on SW-620 colon, 0.89 µM in the experiment on T-47D breast and 0.229 µM in the experiment with UACC-62 melanoma. Also, the TGI in the experiment on BT-549 breast is 2.86 µM; in the experiment with CCRF-CEM leukemia it was over 100 µM; in the experiment with COLO 205 colon, 1.41 µM; in the experiment with HOP-92 NSCLC it was 5.02 µM; in the experiment with OVCAR-8 ovarian, 2.78 µM; in the experiment with SK-MEL-28 melanoma it was 2.07 µM. Also, the TGI in the experiment with SN12C renal came to 1.41 µM; in the experiment with SW-620 colon, 1.16 µM; in the experiment with T-47D breast, 5.55 µM; with UACC-62 melanoma, 0.56 µM.

The record behind these values is PubChem BioAssay (NCI).
